Columns and labels:
[1] = biological target: T1, human TLR7 (Homo sapiens, UniProt Q9NYK1); experiment: HEK-Blue human TLR7 cells NF-κB SEAP reporter assay; assay type: cell-based; settings: stimulation for 20 hours, Quanti Blue 640 nm
T1 construct: host or cells: HEK-Blue human TLR7 cells (HEK293-derived reporter line)
T1 sequence (Q9NYK1 27-1049): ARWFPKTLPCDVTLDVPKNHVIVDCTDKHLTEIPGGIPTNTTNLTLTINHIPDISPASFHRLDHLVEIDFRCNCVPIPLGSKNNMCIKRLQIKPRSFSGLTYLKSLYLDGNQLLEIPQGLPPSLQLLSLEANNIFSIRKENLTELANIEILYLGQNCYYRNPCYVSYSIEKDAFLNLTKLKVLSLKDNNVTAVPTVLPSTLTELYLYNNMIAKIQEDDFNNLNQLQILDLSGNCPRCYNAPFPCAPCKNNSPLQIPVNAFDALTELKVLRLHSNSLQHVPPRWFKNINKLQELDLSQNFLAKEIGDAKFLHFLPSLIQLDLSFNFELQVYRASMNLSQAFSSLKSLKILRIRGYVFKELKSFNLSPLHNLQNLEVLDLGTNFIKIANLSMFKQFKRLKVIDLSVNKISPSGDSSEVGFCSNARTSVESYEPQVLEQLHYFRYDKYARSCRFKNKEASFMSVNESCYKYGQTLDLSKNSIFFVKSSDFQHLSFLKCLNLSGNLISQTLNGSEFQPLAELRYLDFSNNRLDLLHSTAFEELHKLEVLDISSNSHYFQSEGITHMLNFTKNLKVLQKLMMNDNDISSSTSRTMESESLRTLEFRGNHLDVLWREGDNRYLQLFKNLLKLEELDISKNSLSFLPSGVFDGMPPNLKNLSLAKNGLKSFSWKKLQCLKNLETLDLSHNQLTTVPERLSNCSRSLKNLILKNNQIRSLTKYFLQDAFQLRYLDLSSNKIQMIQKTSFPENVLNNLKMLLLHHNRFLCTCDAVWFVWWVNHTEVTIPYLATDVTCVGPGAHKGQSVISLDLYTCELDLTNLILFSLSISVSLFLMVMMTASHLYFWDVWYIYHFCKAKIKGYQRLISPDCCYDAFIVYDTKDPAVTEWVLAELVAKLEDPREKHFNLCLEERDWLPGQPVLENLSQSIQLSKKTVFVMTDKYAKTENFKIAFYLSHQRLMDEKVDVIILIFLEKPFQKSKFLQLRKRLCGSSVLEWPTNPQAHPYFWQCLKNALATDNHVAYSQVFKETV
From the text: (§1) For TLR8 and TLR7 activity testing, HEK-Blue human TLR8 or TLR7 cells (Invivogen, San Diego, Calif., USA) are used, respectively. These cells are designed for studying the stimulation of human TLR8 or TLR7 by monitoring the activation of NF-κB. A SEAP (secreted embryonic alkaline phosphatase) reporter gene is placed under the control of the IFN-b minimal promoter fused to five NF-κB and AP-1-binding sites. Therefore the reporter expression is regulated by the NF-κB promoter upon stimulation of human TLR8 or TLR7 for 20 hours. The cell culture supernatant SEAP reporter activity was determined using Quanti Blue kit (Invivogen, San Diego, Calif., USA) at a wavelength of 640 nm, a detection medium that turns purple/blue in the presence of alkaline phosphatase. EC50 values were determined using Activity Base analysis (ID Business Solution, Limited).

[2] = biological target: T2, human TLR8 (Homo sapiens, UniProt Q9NR97); experiment: HEK-Blue human TLR8 cells NF-κB SEAP reporter assay; assay type: cell-based; settings: stimulation for 20 hours, Quanti Blue 640 nm
T2 construct: host or cells: HEK-Blue human TLR8 cells (HEK293-derived reporter line)
T2 sequence (Q9NR97 27-1041): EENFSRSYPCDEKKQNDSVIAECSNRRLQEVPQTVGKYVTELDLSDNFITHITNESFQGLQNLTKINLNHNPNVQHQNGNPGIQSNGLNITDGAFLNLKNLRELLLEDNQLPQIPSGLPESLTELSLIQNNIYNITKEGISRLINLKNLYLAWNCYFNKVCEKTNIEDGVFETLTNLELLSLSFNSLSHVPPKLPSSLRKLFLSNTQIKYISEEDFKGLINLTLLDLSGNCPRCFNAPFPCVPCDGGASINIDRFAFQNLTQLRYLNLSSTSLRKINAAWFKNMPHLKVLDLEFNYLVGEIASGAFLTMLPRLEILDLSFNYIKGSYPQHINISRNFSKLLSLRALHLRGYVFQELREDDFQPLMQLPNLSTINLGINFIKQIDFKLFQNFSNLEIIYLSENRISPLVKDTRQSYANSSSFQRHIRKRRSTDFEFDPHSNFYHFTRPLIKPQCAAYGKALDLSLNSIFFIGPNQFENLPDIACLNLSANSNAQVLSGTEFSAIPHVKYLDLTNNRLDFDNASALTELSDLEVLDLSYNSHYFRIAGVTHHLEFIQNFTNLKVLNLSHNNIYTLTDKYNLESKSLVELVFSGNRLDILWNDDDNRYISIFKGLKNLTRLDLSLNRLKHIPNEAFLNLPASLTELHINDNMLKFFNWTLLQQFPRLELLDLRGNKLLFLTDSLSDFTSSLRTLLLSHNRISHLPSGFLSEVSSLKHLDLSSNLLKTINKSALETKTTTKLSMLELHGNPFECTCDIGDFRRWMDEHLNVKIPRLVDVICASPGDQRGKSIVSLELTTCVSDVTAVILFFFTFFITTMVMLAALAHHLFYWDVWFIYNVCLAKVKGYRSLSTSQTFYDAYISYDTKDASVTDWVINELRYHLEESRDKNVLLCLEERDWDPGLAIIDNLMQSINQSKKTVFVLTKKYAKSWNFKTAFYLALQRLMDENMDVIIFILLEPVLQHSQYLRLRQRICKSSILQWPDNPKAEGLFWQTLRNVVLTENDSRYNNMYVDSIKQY
From the text: as §1

CCCN(CCC)C(=O)C1=Cc2ccc(C(=O)NC3CCN(c4ccccc4)C3)cc2N=C(N)C1 (stereo not shown) [Example 24, 2-Amino-N8-(1-phenylpyrrolidin-3-yl)-N4,N4-dipropyl-3H-1-benzazepine-4,8-dicarboxamide]
EC50 [1]: > 100000 nM | EC50 [2]: 19 nM

CCCN(CCC)C(=O)C1=Cc2ccc(C(=O)N[C@H]3CCN(c4ccccc4)C3)cc2N=C(N)C1 [Example 25, 2-Amino-N8-[(3S)-1-phenylpyrrolidin-3-yl]-N4,N4-dipropyl-3H-1-benzazepine-4,8-dicarboxamide]
EC50 [1]: > 100000 nM | EC50 [2]: 10 nM

CCCN(CCC)C(=O)C1=Cc2ccc(C(=O)NC3CCC(CNc4ccccc4)CC3)cc2N=C(N)C1 (stereo not shown) [Example 26, 2-Amino-N8-[4-(anilinomethyl)cyclohexyl]-N4,N4-dipropyl-3H-1-benzazepine-4,8-dicarboxamide]
EC50 [1]: > 100000 nM | EC50 [2]: 9 nM

CCCN(CCC)C(=O)C1=Cc2ccc(C(=O)NC3CC(CNc4ccccc4)C3)cc2N=C(N)C1 (stereo not shown) [Example 27, 2-Amino-N8-[3-(anilinomethyl)cyclobutyl]-N4,N4-dipropyl-3H-1-benzazepine-4,8-dicarboxamide]
EC50 [1]: > 100000 nM | EC50 [2]: 7 nM

CCCN(CCC)C(=O)C1=Cc2ccc(C(=O)N[C@@H]3CCN(c4ccccc4)C3)cc2N=C(N)C1 [Example 28, 2-Amino-N8-[(3R)-1-phenylpyrrolidin-3-yl]-N4,N4-dipropyl-3H-1-benzazepine-4,8-dicarboxamide]
EC50 [1]: > 100000 nM | EC50 [2]: 10 nM
